In ChEMBL document CHEMBL1132648, “Butenolide endothelin antagonists with improved aqueous solubility” (J Med Chem, 1999) one finds Aqueous solubility data, which are given here for three compounds.

For the data set the following is noted: buffer, pH 7.4.
For orientation: Aqueous solubility means how much of the substance goes into solution per volume. High values mean a readily soluble substance, low ones a poorly soluble substance. With `COc1ccc(C(=O)/C(Cc2cc(OC)c(OC)c(OCCCC(=O)O)c2)=C(\C(=O)[O-])c2ccc3c(c2)OCO3)cc1.[Na+]`, the Aqueous solubility was > 250 ng/mL.
`COc1ccc(C(=O)/C(Cc2cc(OC)c(OC)c(OC)c2)=C(\C(=O)[O-])c2ccc3c(c2)OCO3)cc1.[Na+]` [PD-156707 SODIUM]: the Aqueous solubility was > 125 ng/mL.
For the compound `COc1ccc(C2(O)OC(=O)C(c3ccc4c(c3)OCO4)=C2Cc2cc(OC)c(OC)c(OC)c2)cc1` (stereo not drawn) [PD-156707], the Aqueous solubility is < 0.01 ng/mL.
